Measurements reported in patent publication US8278304B2, “Substituted 4-hydroxypyrimidine-5-carboxamides” (Merck Sharp & Dohme Corp., priority 2008, dated 2012).
Where a name gives a salt, the structure may show the parent alone.

biological target: T1, PHD2 (Homo sapiens, UniProt Q9GZT9); experiment: PHD2 / HIF-1α peptide hydroxylation assay, time resolved fluorescence (VHL complex detection); format: biochemical; conditions: FLAG-tagged full length PHD2; 0.2 μM 2-oxoglutarate, 0.5 μM HIF-1α peptide; read-out: PHD2 Activity (PHD2 binding activity expressed as IC50 (nM))
T1 construct: FLAG-tagged full length PHD2 expressed in and purified from baculovirus-infected Sf9 cells; FLAG; made in house; host or cells: baculovirus-infected Sf9 cells
T1 sequence (Q9GZT9 whole entry): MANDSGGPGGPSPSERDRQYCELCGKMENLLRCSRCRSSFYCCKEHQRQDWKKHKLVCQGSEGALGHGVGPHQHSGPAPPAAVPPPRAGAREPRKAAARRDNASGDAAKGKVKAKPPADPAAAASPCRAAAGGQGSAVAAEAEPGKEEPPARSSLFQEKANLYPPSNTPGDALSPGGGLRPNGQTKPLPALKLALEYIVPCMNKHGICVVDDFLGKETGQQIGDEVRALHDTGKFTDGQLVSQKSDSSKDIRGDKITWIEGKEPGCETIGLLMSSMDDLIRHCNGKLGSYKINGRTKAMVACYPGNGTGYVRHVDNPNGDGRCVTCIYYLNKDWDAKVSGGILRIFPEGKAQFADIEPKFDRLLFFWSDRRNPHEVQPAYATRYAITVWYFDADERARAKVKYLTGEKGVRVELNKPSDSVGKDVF
In short: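 Sf9-expressed FLAG-tagged full-length PHD2 (0.15 μg/ml) preincubated with compound 30 min at room temperature in Tris pH 7.4 buffer with 10 μM ferrous sulfate, 1 mM ascorbate and catalase. Reaction started with 0.2 μM 2-oxoglutarate and 0.5 μM biotinylated HIF-1α peptide (final); hydroxylation detected by time-resolved fluorescence via VHL complex binding.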

`Cc1nc(-c2ncc(C(=O)NC(c3ccccc3)c3ccccc3)c(O)n2)cs1` [Example 39, N-(diphenylmethyl)-4-hydroxy-2-(2-methyl-1,3-thiazol-4-yl)pyrimidine-5-carboxamide] and `CC[C@@H](NC(=O)c1cnc(-c2csc(C)n2)nc1O)c1ccccc1` [Example 36, 4-Hydroxy-2-(2-methyl-1,3-thiazol-4-yl)-N-[(1R)-1-phenylpropyl]pyrimidine-5-carboxamide] fall in the same range of IC50: 10 to 100 nM for the first, 10 to 100 nM for the second.

First: O=C(NC(c1ccccc1)c1ccccc1)c1cnc(-n2cncn2)nc1O [Example 46, N-(diphenylmethyl)-4-hydroxy-2-(1H-1,2,4-triazol-1-yl)pyrimidine-5-carboxamide]
Second: O=C(N[C@H](c1ccccc1)[C@@H](O)c1ccccc1)c1cnc(-n2cccn2)nc1O [Example 120, 4-hydroxy-N-[(1R,2S)-2-hydroxy-1,2-diphenylethyl]-2-(1H-pyrazol-1-yl)pyrimidine-5-carboxamide]
The IC50 of the first is higher: 100 to 1000 nM for the first, no more than 10 nM for the second. The second is the more potent here.

`CCN(NC(=O)c1cnc(-n2cccn2)nc1O)c1ccccc1` [Example 76, N′-Ethyl-4-hydroxy-N′-phenyl-2-(1H-pyrazol-1-yl)pyrimidine-5-carbohydrazide trifluoroacetate (salt)] and `CC[C@H](NC(=O)c1cnc(-n2cccn2)nc1O)c1ccccc1` [Example 48, 4-Hydroxy-N-[(1S)-1-phenylpropyl]-2-(1H-pyrazol-1-yl)pyrimidine-5-carboxamide] cannot be ordered by IC50: 10 to 100 nM for the first, no more than 10 nM for the second.

First: Cc1nc(-c2ncc(C(=O)NC(C)(C)C)c(O)n2)cs1 [Example 40, N-(tert-butyl)-4-hydroxy-2-(2-methyl-1,3-thiazol-4-yl)pyrimidine-5-carboxamide]
Second: CC[C@H](NC(=O)c1cnc(-c2csc(C)n2)nc1O)c1ccccc1 [Example 35, 4-Hydroxy-2-(2-methyl-1,3-thiazol-4-yl)-N-[(1S)-1-phenylpropyl]pyrimidine-5-carboxamide]
The IC50 of the first is higher: 100 to 1000 nM for the first, 10 to 100 nM for the second.

`C[C@H](NC(=O)c1cnc(-c2cccnn2)nc1O)c1ccc(-c2ccc(F)nc2)cc1` [Example 186, N-{(1S)-1-[4-(6-fluoropyridin-3-yl)phenyl]ethyl}-4-hydroxy-2-pyridazin-3-ylpyrimidine-5-carboxamide trifluoroacetate (salt)] and `C[C@H](NC(=O)c1cnc(-c2cccnn2)nc1O)c1ccc(-c2cccc3cnccc23)cc1` [Example 185, 4-hydroxy-N-[(1S)-1-(4-isoquinolin-5-ylphenyl)ethyl]-2-pyridazin-3-ylpyrimidine-5-carboxamide] cannot be ordered by IC50: no more than 10 nM for the first, no more than 10 nM for the second.

`Cc1ccc([C@H](C)NC(=O)c2cnc(-n3cccn3)nc2O)cc1` [Example 79, 4-Hydroxy-N-[(1S)-1-(4-methylphenyl)ethyl]-2-(1H-pyrazol-1-yl)pyrimidine-5-carboxamide] and `C[C@H](NC(=O)c1cnc(-n2cccn2)nc1O)c1ccc(C#N)cc1` [Example 113, N-[(1S)-1-(4-cyanophenyl)ethyl]-4-hydroxy-2-(1H-pyrazol-1-yl)pyrimidine-5-carboxamide] cannot be ordered by IC50: no more than 10 nM for the first, no more than 10 nM for the second.

`COCc1ccc(C(NC(=O)c2cnc(-c3cccnn3)nc2O)c2ccc(OC)cc2)cc1` (racemic) [Example 181] and `COc1ccc(C(NC(=O)c2cnc(-c3cccnn3)nc2O)c2ccc(C#N)cc2)cc1` (single isomer, unassigned) [Example 150, N-[(4-cyanophenyl)(4-methoxyphenyl)methyl]-4-hydroxy-2-(pyridazin-3-yl)pyrimidine-5-carboxamide] cannot be ordered by IC50: no more than 10 nM for the first, no more than 10 nM for the second.

`COC(=O)c1ccc(CNC(=O)c2cnc(-n3cccn3)nc2O)cc1` [Example 103, methyl 4-[({[4-hydroxy-2-(1H-pyrazol-1-yl)pyrimidin-5-yl]carbonyl}amino)methyl]benzoate] and `N#Cc1ccc(CNC(=O)c2cnc(-n3cccn3)nc2O)cn1` [Example 110, N-[(6-cyanopyridin-3-yl)methyl]-4-hydroxy-2-(1H-pyrazol-1-yl)pyrimidine-5-carboxamide] fall in the same range of IC50: 10 to 100 nM for the first, 10 to 100 nM for the second.

`CCC(CC)(NC(=O)c1cnc(-n2cccn2)nc1O)c1ccccc1` [Example 98, N-(1-ethyl-1-phenylpropyl)-4-hydroxy-2-(1H-pyrazol-1-yl)pyrimidine-5-carboxamide] and `O=C(N[C@@H](C(=O)O)c1ccccc1)c1cnc(-n2cccn2)nc1O` [Example 124, (2R)-({[4-hydroxy-2-(1H-pyrazol-1-yl)pyrimidin-5-yl]carbonyl}amino)(phenyl)ethanoic acid] cannot be ordered by IC50: no more than 10 nM for the first, no more than 10 nM for the second.

`CC(NC(=O)c1cnc(-n2cccn2)nc1O)c1ccc(C(F)(F)F)nc1` (single isomer, unassigned) [Example 141, 4-hydroxy-2-(1H-pyrazol-1-yl)-N-{1-[6-(trifluoromethyl)pyridin-3-yl]ethyl}pyrimidine-5-carboxamide] and `CC(C)(NC(=O)c1cnc(-n2cccn2)nc1O)c1ccc(C(F)(F)F)nc1` [Example 74, 4-Hydroxy-N-{1-methyl-1-[6-(trifluoromethyl)pyridin-3-yl]ethyl}-2-(1H-pyrazol-1-yl)pyrimidine-5-carboxamide] cannot be ordered by IC50: no more than 10 nM for the first, no more than 10 nM for the second.

`COc1ccc(C(NC(=O)c2cnc(-n3cccn3)nc2O)c2ccc(OC)nc2)cc1` (centres unmarked) [Example 167, 4-hydroxy-N-[(4-methoxyphenyl)(6-methoxypyridin-3-yl)methyl]-2-(1H-pyrazol-1-yl)pyrimidine-5-carboxamide trifluoroacetate (salt)] and `COc1ccc(C(NC(=O)c2cnc(-n3cccn3)nc2O)c2cnccn2)cc1` (centres unmarked) [Example 166, 4-hydroxy-N-[(4-methoxyphenyl)(pyrazin-2-yl)methyl]-2-(1H-pyrazol-1-yl)pyrimidine-5-carboxamide] cannot be ordered by IC50: no more than 10 nM for the first, no more than 10 nM for the second.

`O=C(NCc1ccc(-c2ccc(F)cc2)cc1)c1cnc(-n2cccn2)nc1O` [Example 63, N-[(4′-fluorobiphenyl-4-yl)methyl]-4-hydroxy-2-(1H-pyrazol-1-yl)pyrimidine-5-carboxamide] and `O=C(NCc1ccc(-c2ccc(F)cc2)nc1)c1cnc(-n2cccn2)nc1O` [Example 108, N-{[6-(4-fluorophenyl)pyridin-3-yl]methyl}-4-hydroxy-2-(1H-pyrazol-1-yl)pyrimidine-5-carboxamide] cannot be ordered by IC50: no more than 10 nM for the first, no more than 10 nM for the second.

`CC(NC(=O)c1cnc(-c2ccccn2)nc1O)c1ccc(F)cc1` (centres unmarked) [Example 12, N-[1-(4-fluorophenyl)ethyl]-4-hydroxy-2-pyridin-2-ylpyrimidine-5-carboxamide] and `CC(C)CC(NC(=O)c1cnc(-c2cccnn2)nc1O)c1ccc(C#N)cc1` (single isomer, unassigned) [Example 159, N-[1-(4-cyanophenyl)-3-methylbutyl]-4-hydroxy-2-(pyridazin-3-yl)pyrimidine-5-carboxamide] fall in the same range of IC50: 10 to 100 nM for the first, 10 to 100 nM for the second.

`CC(C)(NC(=O)c1cnc(-c2cc(Br)ccn2)nc1O)c1ccccc1` [Example 1, 2-(4-Bromopyridin-2-yl)-4-hydroxy-N-(1-methyl-1-phenylethyl)pyrimidine-5-carboxamide] and `CC(C)(NC(=O)c1cnc(-c2cnccn2)nc1O)c1ccccc1` [Example 19, 4-Hydroxy-N-(1-methyl-1-phenylethyl)-2-pyrazin-2-ylpyrimidine-5-carboxamide] fall in the same range of IC50: 10 to 100 nM for the first, 10 to 100 nM for the second.

`CC(NC(=O)c1cnc(-n2cccn2)nc1O)c1ccccn1` (centres unmarked) [Example 118, 4-hydroxy-2-(1H-pyrazol-1-yl)-N-[1-(pyridin-2-yl)ethyl]pyrimidine-5-carboxamide] and `O=C(NCc1cnc(-c2ccc(F)cc2)cn1)c1cnc(-n2cccn2)nc1O` [Example 109, N-{[5-(4-fluorophenyl)pyrazin-2-yl]methyl}-4-hydroxy-2-(1H-pyrazol-1-yl)pyrimidine-5-carboxamide] fall in the same range of IC50: 10 to 100 nM for the first, 10 to 100 nM for the second.

Compared with `Cc1cc(C)n(-c2ncc(C(=O)NCc3ccc(OC(F)(F)F)cc3)c(O)n2)n1` [Example 44, 2-(3,5-Dimethyl-1H-pyrazol-1-yl)-4-hydroxy-N-[4-(trifluoromethoxy)benzyl]pyrimidine-5-carboxamide], `Cc1nc(-c2ncc(C(=O)NCc3ccc(C(F)(F)F)cc3)c(O)n2)cs1` [Example 29, 4-Hydroxy-2-(2-methyl-1,3-thiazol-4-yl)-N-[4-(trifluoromethyl)benzyl]pyrimidine-5-carboxamide] is lower in IC50: 100 to 1000 nM for the first, 10 to 100 nM for the second.

`O=C(NN1CCCCC1)c1cnc(-n2cccn2)nc1O` [Example 80, 4-hydroxy-N-piperidin-1-yl-2-(1H-pyrazol-1-yl)pyrimidine-5-carboxamide trifluoroacetate (salt)] and `CC(C)(C)C1CCC(NC(=O)c2cnc(-n3cccn3)nc2O)CC1` (centres unmarked) [Example 82, N-(4-tert-butylcyclohexyl)-4-hydroxy-2-(1H-pyrazol-1-yl)pyrimidine-5-carboxamide] fall in the same range of IC50: 10 to 100 nM for the first, 10 to 100 nM for the second.

`COCc1ccc(C(NC(=O)c2cnc(-c3cccnn3)nc2O)c2ccc(OC)cc2)cc1` (single isomer, unassigned) [Example 182, 4-Hydroxy-N-[[4-(methoxymethyl)phenyl](4-methoxyphenyl)methyl]-2-pyridazin-3-ylpyrimidine-5-carboxamide] and `COc1ccc(C(NC(=O)c2cnc(-c3cccnn3)nc2O)c2ccc(C)nc2)cc1` (single isomer, unassigned) [Example 146, 4-hydroxy-N-[(4-methoxyphenyl)(6-methylpyridin-3-yl)methyl]-2-(pyridazin-3-yl)pyrimidine-5-carboxamide] cannot be ordered by IC50: no more than 10 nM for the first, no more than 10 nM for the second.

`O=C(N[C@H](c1ccccc1)[C@@H](O)c1ccccc1)c1cnc(-c2cccnn2)nc1O` [Example 138] and `COc1ccc(C(NC(=O)c2cnc(-c3cccnn3)nc2O)c2nc(C)cs2)cc1` (single isomer, unassigned) [Example 145, 4-hydroxy-N-[(4-methoxyphenyl)(4-methyl-1,3-thiazol-2-yl)methyl]-2-(pyridazin-3-yl)pyrimidine-5-carboxamide] cannot be ordered by IC50: no more than 10 nM for the first, no more than 10 nM for the second.
